Type in all cases: cell-based
One series deals with N87 cells. Put plainly: In vitro toxicity assay using human gastric cells (resazurin). As to the method: [26] Human gastric cells N87 (ATCC CRL-5822) were cultured in RPMI-1640 medium supplemented with 10% fetal calf serum (FCS), 1% L-glutamine and 1% antibiotics (all from Invitrogen, Carlsbad, CA, USA) and were routinely seeded onto 25 cm^2 flasks maintained in a 5% CO2 incubator at 37 °C. For the toxicity assay, cells grown on 25 cm^2 flasks were detached using trypsin–EDTA solution (from Thermofisher), counted using Mallasez counting chamber and seeded into 96-well cell culture plates (Greiner Bio-one) at approximately 10^4 cells per well. The cells were left to grow for 48–72 h at 37 °C in a 5% CO2 incubator until they reached confluence. Plates were then aspirated and increasing concentrations of peptides were added to the cells for 48 h at 37 °C in a 5% CO2 incubator, volume of water corresponding to the volume of peptides being used as negative control. At the end of the incubation, wells were aspirated, and cell viability was evaluated using resazurin-based in vitro toxicity assay kit (Sigma-Aldrich) following manufacturer’s instructions. Briefly, resazurin stock solution was diluted 1:10 in sterile PBS containing calcium and magnesium (PBS^++, pH 7.4) and empty wells were filled with 100 µL of the diluted solution. After 4 h incubation at 37 °C, fluorescence intensity was measured using microplate reader (Synergy Mx, Biotek) with an excitation wavelength of 530 nm and an emission wavelength of 590 nm. The fluorescence values were normalized by the controls and expressed as percent viability.

The subject of series [1] is human gastric explants. Put plainly: Ex vivo toxicity assay, LDH release from human gastric explants. The following applies: peptides 100 µM, CTAB 300 µM, % of total release. As for the experimental part: To further evaluate the innocuity of the peptides, ex vivo experiments were performed using human explants as previously described. Briefly, human gastric tissue samples were obtained from patients undergoing surgery at the Hospital Laveran (Marseille, France), unit of gastrointestinal surgery according to a collaborative clinical transfer project. The procedures were approved by the French ethic committee (CODECOH n° DC-2019-3402). All patients agreed for the use of their tissues for research purposes. Samples were taken from healthy patients during sleeve gastrectomy from macroscopically unaffected area as identified by the surgeons. After resection, the specimens were placed in ice-cold oxygenated sterile DMEM solution containing 1% streptomycin/penicillin solution and 50 μg/mL gentamycin and were directly transferred to the laboratory within 15 min on ice. Gastric tissues were extensively washed and maintained in ice-cold culture media containing 1% streptomycin/penicillin solution and 50 μg/mL gentamycin. Tissues were cleaned from vascular vessels and conjunctive tissue using forceps under binocular microscope. Gastric explants (wet weight of 20–30 mg) were then isolated from the cleaned resections using surgical punch (diameter of 0.5 cm^2). […] Finally, the explants were washed three times with culture media without antibiotics and transferred into 24-well plates before being incubated in RPMI media without fetal bovine serum, antibiotics and phenol red at 37 °C in the 5% CO2 incubator with 100 µM of peptides for 2, 4 or 8 h. Phenol red was omitted from the culture media since it interferes with the lactate dehydrogenase (LDH) assay. The detergent cetyl-trimethylammonium bromide (CTAB) at 300 µM was used as positive control of tissue damages. At the end of the incubation, the explants were collected and washed three times with PBS^++ and were fixed overnight at 4 °C with PFA diluted at 4% in PBS. After that, gastric explants were washed twice with PBS and were included in an inclusion medium (TFM-EMS), in transverse position to allow cutting in the crypt-villosity axis using cryostat (Leica CM3050) (Leica Microsystems, Nanterre, France). Four sections of 5 µm thickness were obtained per explant, each section being separated by 100 µm from the next in order to cover all the tissue. Explants were then stained using hematoxylin and eosin (H&E) staining protocol. Briefly, samples were incubated for 8 min in hematoxylin (Sigma-Aldrich) and then allowed to stain by incubation with water for 2 min. Then explants were incubated for 1 min in eosin (Sigma-Aldrich) and then in water for 1 min. This was followed by incubation of explants with ethanol at concentration of 70% then 95% and finally 100% for 2 min each. After blotting excess ethanol, gastric explants were incubated for 15 min with xylene and mounted with coverslip using Eukitt mounting media (EMS, Hatfield, PA, USA). Finally, explants were left overnight to dry before examination of tissue organization under the microscope (Leitz DMRB microscope (Leïca), equipped with Leïca DFC 450C camera). Quantification of the release of LDH was also used in addition to microscopic observations to evaluate the impact of peptides on human gastric explants. Briefly, after 2, 4 or 8 h of incubation of the explants with the peptides, the supernatants of the wells were collected and stored at -80 °C before the LDH assay. The LDH activity was measured using previously described protocol with minor changes. Briefly, 50 µL of supernatants obtained from explants were mixed with 200 µL of Tris-Lactate buffer (containing Tris HCl at 86 mM, L-Lactate at 56 mM and KCl at 172 mM, pH 9.3, all from Sigma-Aldrich) and 20 µL of NAD (at 172 mM, Sigma-Aldrich) into well of 96-wells plates. Increase in OD339nm was then measured at 30 °C after 0, 1, 5, and 10 min using microplate reader (Synergy Mx, Biotek). […]
(Release of lactate dehydrogenase indicates damage to the cell membrane.)

Series [2] has as its system human gastric explants. Put plainly: Ex vivo toxicity assay, histological examination (H&E) of human gastric explants. As to conditions: 2, 4 or 8 h; peptides 100 µM, CTAB 300 µM; H&E staining. As for the experimental part: To further evaluate the innocuity of the peptides, ex vivo experiments were performed using human explants as previously described. Briefly, human gastric tissue samples were obtained from patients undergoing surgery at the Hospital Laveran (Marseille, France), unit of gastrointestinal surgery according to a collaborative clinical transfer project. The procedures were approved by the French ethic committee (CODECOH n° DC-2019-3402). All patients agreed for the use of their tissues for research purposes. Samples were taken from healthy patients during sleeve gastrectomy from macroscopically unaffected area as identified by the surgeons. After resection, the specimens were placed in ice-cold oxygenated sterile DMEM solution containing 1% streptomycin/penicillin solution and 50 μg/mL gentamycin and were directly transferred to the laboratory within 15 min on ice. Gastric tissues were extensively washed and maintained in ice-cold culture media containing 1% streptomycin/penicillin solution and 50 μg/mL gentamycin. […] Quantification of the release of LDH was also used in addition to microscopic observations to evaluate the impact of peptides on human gastric explants. […] The LDH activity was measured using previously described protocol with minor changes. […] Increase in OD339nm was then measured at 30 °C after 0, 1, 5, and 10 min using microplate reader (Synergy Mx, Biotek). […]

SMILES strings stand for the structures. Non-standard residues stand in square brackets, D forms with d. Residues, ends and D or L forms follow the SMILES beside them.

`CC[C@H](C)[C@H](NC(=O)CNC(=O)[C@H](CO)NC(=O)[C@H](CC(C)C)NC(=O)[C@@H](N)Cc1ccccc1)C(=O)N[C@H](C(=O)NCC(=O)N[C@@H](CCSC)C(=O)N[C@@H](CC(C)C)C(=O)N[C@H](C)C(=O)N[C@@H](CCCCN)C(=O)N[C@@H](CC(C)C)C(=O)N[C@@H](Cc1ccccc1)C(N)=O)C(C)C` [NST1, H-Phe^1-Leu^2-Ser^3-Gly^4-Ile^5-Val^6-Gly^7-Met^8-Leu^9-D-Ala^10-Lys^11-Leu^12-Phe^13-NH2] (H-FLSGIVGML[dA]KLF-NH2): the IC50 in the series with N87 cells (48 h incubation, resazurin cell viability, read-out: IC50 on N87 Cells) is 90.4 ± 10.4 µM. The “increase in toxicity to human gastric cells compared to temporin-SHa” value in the series with N87 cells (from IC50 on N87 cells) was around 17 fold. Further, the LDH release is reported as 8.3% with human gastric explants [1] (2 h), 12.0% with human gastric explants [1] (4 h) and 25.0% in the series with human gastric explants [1] (8 h). Besides, in the series with human gastric explants [2], the “tissue organization by microscopic observation” value is given as “tissue organization close to the negative controls”.

For orientation: IC50 means the point on the concentration scale where inhibition reaches its midpoint.

Source of the values: article PMC6843786, “Temporin-SHa and Its Analogs as Potential Candidates for the Treatment of Helicobacter pylori” (Biomolecules, 2019).
